Test results taken from patent publication US8247211B2, “Glycopeptide antibiotics” (American Cyanamid Company, priority 2001, dated 2012).
Converted amounts (≈) assume the structure as drawn. Blank lines part the entries; values can stand above or below the molecule they belong to.

Assays:
Assay in all cases: In vitro antibacterial evaluation: minimum inhibitory concentration (MIC), broth dilution method
Assay type in all cases: cell-based
[1] = test system: Enterococcus sp.; conditions: 18 hours at 35° C.
In short: (§1)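 Susceptibility determined by NCCLS-recommended broth dilution (M7-A2), Muller-Hinton II […]. Concentration span 64-0.06 μg/mL, inoculum 5×10^5 CFU/mL. Isolates include strains resistant to methicillin, penicillin and/or vancomycin.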

[2] = test system: Escherichia coli; conditions: 18 hours at 35° C.
In short: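 NCCLS M7-A2 broth dilution; Muller-Hinton II […]; 5×10^5 CFU/mL; 64-0.06 μg/mL. MIC = lowest concentration with no growth.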

[3] = test system: Staphylococcus sp.; conditions: for MIC Staphylococcus aureus (ATCC 29213): strain ATCC 29213; for MIC Staphylococcus aureus (GC 1131): strain GC 1131; for MIC Staphylococcus aureus (GC 3051): strain GC 3051; for MIC Staphylococcus aureus (GC 3053): strain GC 3053; for MIC Staphylococcus aureus (GC 4541): strain GC 4541; for MIC Staphylococcus aureus (GC 4542): strain GC 4542; for MIC Staphylococcus aureus-SMITH (GC 4543): strain GC 4543; for MIC Staphylococcus aureus (GC 4544): strain GC 4544; for MIC Staphylococcus aureus (GC 4545): strain GC 4545; for MIC Staphylococcus haemolyticus (GC 4546): strain GC 4546; for MIC Coagulase Negative Staphylococcus (GC 4547): strain GC 4547; for MIC Coagulase Negative Staphylococcus (GC 4548): strain GC 4548; for MIC Coagulase Negative Staphylococcus (GC 4549): strain GC 4549; for MIC Coagulase Negative Staphylococcus (GC 4551): strain GC 4551; for MIC Coagulase Negative Staphylococcus (GC 6257): strain GC 6257
In short: as §1

[4] = test system: Streptococcus sp.; conditions: 18 hours at 35° C.
In short: as §1

[5] = Enterococcus faecalis (ATCC 29212)
[6] = Enterococcus faecalis (GC 2242)
[7] = Enterococcus faecalis (GC 2691)
[8] = Enterococcus faecalis (GC 3059)
[9] = Enterococcus faecalis (GC 4552)
[10] = Enterococcus faecalis (GC 4553)
[11] = Enterococcus faecalis (GC 4554)
[12] = Enterococcus faecalis (GC 6189)
[13] = broth dilution, inoculum 5×10^5 CFU/mL
[14] = Streptococcus agalactiae (GC 4564)
[15] = Streptococcus pneumoniae (ATCC 6301)
[16] = Streptococcus pneumoniae (GC 1894)
[17] = Streptococcus pneumoniae (GC 4565)
[18] = Streptococcus pyogenes (GC 4563)

MIC Enterococcus avium (GC 4558) ([1]; Enterococcus avium (GC 4558)): 64 µg/mL (≈ 39.9 µM) | MIC Enterococcus faecalis (ATCC 29212) [1, 5]: >64 µg/mL | MIC Enterococcus faecalis (GC 2242) [1, 6]: >64 µg/mL | MIC Enterococcus faecalis (GC 2691) [1, 7]: >64 µg/mL | MIC Enterococcus faecalis (GC 3059) [1, 8]: >64 µg/mL | MIC Enterococcus faecalis (GC 4552) [1, 9]: >64 µg/mL | MIC Enterococcus faecalis (GC 4553) [1, 10]: 32 µg/mL (≈ 20 µM) | MIC Enterococcus faecalis (GC 4554) [1, 11]: >64 µg/mL | MIC Enterococcus faecalis (GC 6189) [1, 12]: >64 µg/mL | MIC Enterococcus faecium (GC 2243) ([1]; Enterococcus faecium (GC 2243)): 32 µg/mL (≈ 20 µM) | MIC Enterococcus faecium (GC 4556) ([1]; Enterococcus faecium (GC 4556)): >64 µg/mL | MIC Enterococcus faecium (GC 4557) ([1]; Enterococcus faecium (GC 4557)): >64 µg/mL | MIC Enterococcus avium (GC 4558) [1, 13]: 64 µg/mL (≈ 39.9 µM) | MIC Enterococcus faecalis (ATCC 29212) [1, 13]: >64 µg/mL | MIC Enterococcus faecalis (GC 2242) [1, 13]: >64 µg/mL | MIC Enterococcus faecalis (GC 2691) [1, 13]: >64 µg/mL | MIC Enterococcus faecalis (GC 3059) [1, 13]: >64 µg/mL | MIC Enterococcus faecalis (GC 4552) [1, 13]: >64 µg/mL | MIC Enterococcus faecalis (GC 4553) [1, 13]: 32 µg/mL (≈ 20 µM) | MIC Enterococcus faecalis (GC 4554) [1, 13]: >64 µg/mL | MIC Enterococcus faecalis (GC 6189) [1, 13]: >64 µg/mL | MIC Enterococcus faecium (GC 2243) [1, 13]: 32 µg/mL (≈ 20 µM) | MIC Enterococcus faecium (GC 4556) [1, 13]: >64 µg/mL | MIC Enterococcus faecium (GC 4557) [1, 13]: >64 µg/mL | MIC Escherichia coli (ATCC 25922) [2]: >64 µg/mL | MIC Escherichia coli (GC 4559) [2]: >64 µg/mL | MIC Escherichia coli (GC 4560) [2]: >64 µg/mL | MIC Staphylococcus aureus (ATCC 29213) [3]: >64 µg/mL | MIC Staphylococcus aureus (GC 1131) [3]: >64 µg/mL | MIC Staphylococcus aureus (GC 3051) [3]: >64 µg/mL | MIC Staphylococcus aureus (GC 3053) [3]: >64 µg/mL | MIC Staphylococcus aureus (GC 4541) [3]: >64 µg/mL | MIC Staphylococcus aureus (GC 4542) [3]: >64 µg/mL | MIC Staphylococcus aureus-SMITH (GC 4543) [3]: >64 µg/mL | MIC Staphylococcus aureus (GC 4544) [3]: >64 µg/mL | MIC Staphylococcus aureus (GC 4545) [3]: >64 µg/mL | MIC Coagulase Negative Staphylococcus (GC 4547) [3]: >64 µg/mL | MIC Coagulase Negative Staphylococcus (GC 4548) [3]: >64 µg/mL | MIC Coagulase Negative Staphylococcus (GC 4549) [3]: >64 µg/mL | MIC Coagulase Negative Staphylococcus (GC 4551) [3]: >64 µg/mL | MIC Coagulase Negative Staphylococcus (GC 6257) [3]: >64 µg/mL | MIC Streptococcus agalactiae (GC 4564) [4, 14]: 1 µg/mL (≈ 0.624 µM) | MIC Streptococcus pneumoniae (ATCC 6301) [4, 15]: 0.12 µg/mL (≈ 0.0748 µM) | MIC Streptococcus pneumoniae (GC 1894) [4, 16]: <0.06 µg/mL | MIC Streptococcus pneumoniae (GC 4565) [4, 17]: <0.06 µg/mL | MIC Streptococcus pyogenes (GC 4563) [4, 18]: 16 µg/mL (≈ 9.98 µM) | MIC Streptococcus agalactiae (GC 4564) [4, 13]: 1 µg/mL (≈ 0.624 µM) | MIC Streptococcus pneumoniae (ATCC 6301) [4, 13]: 0.12 µg/mL (≈ 0.0748 µM) | MIC Streptococcus pneumoniae (GC 1894) [4, 13]: <0.06 µg/mL | MIC Streptococcus pneumoniae (GC 4565) [4, 13]: <0.06 µg/mL | MIC Streptococcus pyogenes (GC 4563) [4, 13]: 16 µg/mL (≈ 9.98 µM)
SMILES: CC(C)=CCCC(C)=CCCC(C)=CCOc1cccc(C2OCC3OC(OC4C(CO)OC(Oc5ccc(CC6NC(=O)C(C(C)c7ccccc7)NC(=O)CNC(=O)C(CO)NC(=O)C(C(O)C7CNC(=N)N7C7OC(CO)C(O)C(O)C7O)NC(=O)C(C(O)C7CNC(=N)N7)NC6=O)cc5)C(O)C4O)C(O)C(O)C3O2)c1 (centres unmarked) [Example 185]
MIC Staphylococcus haemolyticus (GC 4546) [3]: >64 µg/mL

MIC Enterococcus avium (GC 4558) ([1]; Enterococcus avium (GC 4558)): 2 µg/mL (≈ 1.24 µM) | MIC Enterococcus faecalis (ATCC 29212) [1, 5]: 2 µg/mL (≈ 1.24 µM) | MIC Enterococcus faecalis (GC 2242) [1, 6]: 2 µg/mL (≈ 1.24 µM) | MIC Enterococcus faecalis (GC 2691) [1, 7]: 2 µg/mL (≈ 1.24 µM) | MIC Enterococcus faecalis (GC 3059) [1, 8]: 2 µg/mL (≈ 1.24 µM) | MIC Enterococcus faecalis (GC 4552) [1, 9]: 2 µg/mL (≈ 1.24 µM) | MIC Enterococcus faecalis (GC 4553) [1, 10]: 2 µg/mL (≈ 1.24 µM) | MIC Enterococcus faecalis (GC 4554) [1, 11]: 2 µg/mL (≈ 1.24 µM) | MIC Enterococcus faecalis (GC 6189) [1, 12]: 1 µg/mL (≈ 0.62 µM) | MIC Enterococcus faecium (GC 2243) ([1]; Enterococcus faecium (GC 2243)): 2 µg/mL (≈ 1.24 µM) | MIC Enterococcus faecium (GC 4556) ([1]; Enterococcus faecium (GC 4556)): 2 µg/mL (≈ 1.24 µM) | MIC Enterococcus faecium (GC 4557) ([1]; Enterococcus faecium (GC 4557)): 2 µg/mL (≈ 1.24 µM) | MIC Enterococcus avium (GC 4558) [1, 13]: 2 µg/mL (≈ 1.24 µM) | MIC Enterococcus faecalis (ATCC 29212) [1, 13]: 2 µg/mL (≈ 1.24 µM) | MIC Enterococcus faecalis (GC 2242) [1, 13]: 2 µg/mL (≈ 1.24 µM) | MIC Enterococcus faecalis (GC 2691) [1, 13]: 2 µg/mL (≈ 1.24 µM) | MIC Enterococcus faecalis (GC 3059) [1, 13]: 2 µg/mL (≈ 1.24 µM) | MIC Enterococcus faecalis (GC 4552) [1, 13]: 2 µg/mL (≈ 1.24 µM) | MIC Enterococcus faecalis (GC 4553) [1, 13]: 2 µg/mL (≈ 1.24 µM) | MIC Enterococcus faecalis (GC 4554) [1, 13]: 2 µg/mL (≈ 1.24 µM) | MIC Enterococcus faecalis (GC 6189) [1, 13]: 1 µg/mL (≈ 0.62 µM) | MIC Enterococcus faecium (GC 2243) [1, 13]: 2 µg/mL (≈ 1.24 µM) | MIC Enterococcus faecium (GC 4556) [1, 13]: 2 µg/mL (≈ 1.24 µM) | MIC Enterococcus faecium (GC 4557) [1, 13]: 2 µg/mL (≈ 1.24 µM) | MIC Escherichia coli (ATCC 25922) [2]: 64 µg/mL (≈ 39.7 µM) | MIC Escherichia coli (GC 4559) [2]: 64 µg/mL (≈ 39.7 µM) | MIC Escherichia coli (GC 4560) [2]: 4 µg/mL (≈ 2.48 µM) | MIC Staphylococcus aureus (ATCC 29213) [3]: 2 µg/mL (≈ 1.24 µM) | MIC Staphylococcus aureus (GC 1131) [3]: 2 µg/mL (≈ 1.24 µM) | MIC Staphylococcus aureus (GC 3051) [3]: 2 µg/mL (≈ 1.24 µM) | MIC Staphylococcus aureus (GC 3053) [3]: 2 µg/mL (≈ 1.24 µM) | MIC Staphylococcus aureus (GC 4541) [3]: 2 µg/mL (≈ 1.24 µM) | MIC Staphylococcus aureus (GC 4542) [3]: 1 µg/mL (≈ 0.62 µM) | MIC Staphylococcus aureus-SMITH (GC 4543) [3]: 2 µg/mL (≈ 1.24 µM) | MIC Staphylococcus aureus (GC 4544) [3]: 2 µg/mL (≈ 1.24 µM) | MIC Staphylococcus aureus (GC 4545) [3]: 2 µg/mL (≈ 1.24 µM) | MIC Coagulase Negative Staphylococcus (GC 4547) [3]: 2 µg/mL (≈ 1.24 µM) | MIC Coagulase Negative Staphylococcus (GC 4548) [3]: 1 µg/mL (≈ 0.62 µM) | MIC Coagulase Negative Staphylococcus (GC 4549) [3]: 1 µg/mL (≈ 0.62 µM) | MIC Coagulase Negative Staphylococcus (GC 4551) [3]: 2 µg/mL (≈ 1.24 µM) | MIC Coagulase Negative Staphylococcus (GC 6257) [3]: 0.5 µg/mL (≈ 0.31 µM) | MIC Streptococcus agalactiae (GC 4564) [4, 14]: <0.06 µg/mL | MIC Streptococcus pneumoniae (ATCC 6301) [4, 15]: <0.06 µg/mL | MIC Streptococcus pneumoniae (GC 1894) [4, 16]: <0.06 µg/mL | MIC Streptococcus pneumoniae (GC 4565) [4, 17]: <0.06 µg/mL | MIC Streptococcus pyogenes (GC 4563) [4, 18]: 0.25 µg/mL (≈ 0.155 µM) | MIC Streptococcus agalactiae (GC 4564) [4, 13]: <0.06 µg/mL | MIC Streptococcus pneumoniae (ATCC 6301) [4, 13]: <0.06 µg/mL | MIC Streptococcus pneumoniae (GC 1894) [4, 13]: <0.06 µg/mL | MIC Streptococcus pneumoniae (GC 4565) [4, 13]: <0.06 µg/mL | MIC Streptococcus pyogenes (GC 4563) [4, 13]: 0.25 µg/mL (≈ 0.155 µM)
SMILES: CC(c1ccccc1)C1NC(=O)CNC(=O)C(CO)NC(=O)C(C(O)C2CNC(=N)N2C2OC(CO)C(O)C(O)C2O)NC(=O)C(C(O)C2CNC(=N)N2)NC(=O)C(Cc2ccc(OC3OC(CO)C(OC4OC5COC(c6ccc(C(=O)c7ccc(I)cc7)cc6)OC5C(O)C4O)C(O)C3O)cc2)NC1=O (centres unmarked) [Example 186]
MIC Staphylococcus haemolyticus (GC 4546) [3]: 1 µg/mL (≈ 0.62 µM)
